Each molecule was assayed against Human Factor D (Homo sapiens (Human), UniProt P00746) (assay: Human Factor D Assay). Details: Human Factor D 80 nM, substrate Z-L-Lys-SBzl; read-out: IC50.
Human Factor D, sequence (P00746 26-253): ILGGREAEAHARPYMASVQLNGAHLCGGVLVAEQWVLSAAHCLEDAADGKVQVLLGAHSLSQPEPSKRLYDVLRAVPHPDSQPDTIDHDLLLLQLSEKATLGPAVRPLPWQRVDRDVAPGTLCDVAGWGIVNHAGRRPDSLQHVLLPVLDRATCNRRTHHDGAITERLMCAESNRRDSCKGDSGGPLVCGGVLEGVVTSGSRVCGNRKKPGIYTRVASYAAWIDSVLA
Type: biochemical
Protocol: Human Factor D (purified from human serum, Complement Technology, Inc.) at 80 nM final concentration was incubated with test compound at various concentrations for 5 minutes at room temperature in 50 mM Tris, 1M NaCl, pH 7.5. A synthetic substrate Z-L-Lys-SBzl and DTNB (Ellman's reagent) are added to final concentrations of 100 μM each. […] IC50 values are calculated by nonlinear regression of complement Factor D reaction rates as a function of test compound concentration.
In the case of NC(=O)c1nn(CC(=O)N2C[C@H](F)C[C@H]2C(=O)Nc2cccc(-c3ccccc3Cl)c2F)c2ccc(-c3cn[nH]c3)cc12 [Compound 1], the IC50 is reported as under 1000 nM. NC(=O)c1nn(CC(=O)N2C[C@H](F)C[C@H]2C(=O)Nc2cccc(-c3ccccc3Cl)c2F)c2ccc(-c3cncnc3)cc12 [Compound 2] showed an IC50 of under 1000 nM. Molecule NC(=O)c1nn(CC(=O)N2C[C@H](F)C[C@H]2C(=O)Nc2cccc(Br)n2)c2ccc(-c3ccc(N4CCOCC4)cc3)cc12 [Compound 3, 1-(2-((2S,4R)-2-((6-Bromopyridin-2-yl)carbamoyl)-4-fluoropyrrolidin-1-yl)-2-oxoethyl)-5-(4-morphlinophenyl)-1H-indazole-3-carboxamide] has an IC50 of under 1000 nM. Molecule NC(=O)c1nn(CC(=O)N2[C@@H]3C[C@@H]3C[C@H]2C(=O)Nc2cccc(Br)n2)c2ccc(-c3cncnc3)cc12 [Compound 4] has an IC50 of under 1000 nM. With NC(=O)c1nn(CC(=O)N2C[C@H](F)C[C@H]2C(=O)Nc2cccc(Br)n2)c2ccc(-c3cncnc3)cc12 [Compound 5, 1-(2-((2S,4R)-2-(6-bromopyridin-2-ylcarbamoyl)-4-fluoropyrrolidin-1-yl)-2-oxoethyl)-5-(pyrimidin-5-yl)-1H-indazole-3-carboxamide] the IC50 was under 1000 nM. Molecule NC(=O)c1nn(CC(=O)N2[C@@H]3C[C@@H]3C[C@H]2C(=O)Nc2cccc(-c3ccccc3Cl)c2F)c2ccc(-c3cncnc3)cc12 [Compound 6, 1-(2-((1R,3S,5R)-3-((2′-Chloro-2-fluoro-[1,1′-biphenyl]-3-yl)carbamoyl)-azabicyclo[3.1.0]hexan-2-yl)-2-oxoethyl)-5-(pyrimidin-5-yl)-1H-indazole-3-carboxamide] has an IC50 of under 1000 nM. For NC(=O)c1nn(CC(=O)N2[C@@H]3C[C@@H]3C[C@H]2C(=O)Nc2cccc(-c3ccccc3Cl)c2F)c2ccc(-c3ncccn3)cc12 [Compound 7, 1-(2-((1R,3S,5R)-3-(2′-chloro-2-fluorobiphenyl-3-ylcarbamoyl)-2-azabicyclo[3.1.0]hexan-2-yl)-2-oxoethyl)-5-(pyrimidin-2-yl)-1H-indazole-3-carboxamide], the IC50 was under 1000 nM. NC(=O)c1nn(CC(=O)N2[C@@H]3C[C@@H]3C[C@H]2C(=O)Nc2cccc(OC(F)(F)F)c2F)c2ccc(-c3cncnc3)cc12 [Compound 8, 1-(2-((1R,3S,5R)-3-(2-fluoro-3-(trifluoromethoxy)phenylcarbamoyl)-2-azabicyclo[3.1.0]hexan-2-yl)-2-oxoethyl)-5-(pyrimidin-5-yl)-1H-indazole-3-carboxamide] was tested, and the IC50 was under 1000 nM.

Same assay, conditions: Human Factor D, Table 3; read-out: IC50
Molecule CC(=O)c1nn(CC(=O)N2C(C(=O)Nc3cccc(Br)n3)C[C@@]3(CN(C)C)C[C@@H]23)c2ccc(-c3cnc(C)nc3)cc12 (stereo in doubt) [Compound 577, (1R,3S,5R)-2-(2-(3-Acetyl-5-(2-methylpyrimidin-5-yl)-1H-indazol-1-yl)acetyl)-N-(6-bromopyridin-2-yl)-5-((dimethylamino)methyl)-2-azabicyclo[3.1.0]hexane-3-carboxamide] has an IC50 of under 1000 nM. CC(=O)c1nn(CC(=O)N2C(C(=O)Nc3cccc(Br)n3)C[C@]3(CN(C)C)C[C@H]23)c2ccc(-c3cnc(C)nc3)cc12 (stereo in doubt) [Compound 578, (1S,3S,5S)-2-(2-(3-acetyl-5-(2-methylpyrimidin-5-yl)-1H-indazol-1-yl)acetyl)-N-(6-bromopyridin-2-yl)-5-((dimethylamino)methyl)-2-azabicyclo[3.1.0]hexane-3-carboxamide] was tested, and the IC50 was under 1000 nM. For CC(=O)c1nn(CC(=O)N2C[C@@](F)(CF)CC2C(=O)Nc2nc(Br)ccc2C)c2ccc(-c3cnc(N)nc3)cc12 (stereo in doubt) [Compound 579, (2S,4R)-1-(2-(3-acetyl-5-(2-aminopyrimidin-5-yl)-1H-indazol-1-yl)acetyl)-N-(6-bromo-3-methylpyridin-2-yl)-4-fluoro-4-(fluoromethyl) pyrrolidine-2-carboxamide], the IC50 was under 1000 nM.

— US10287301B2 (Achillion Pharmaceuticals, Inc., priority 2015, dated 2019)
